How the values were obtained:
[1] = system: Male ICR mice; assay: Triglyceride (TG) elevation-suppressing action in plasma by lipid administration; type: in vivo, mouse; details: 5 mg/kg oral, fasted ICR mice, lipid (Intralipos 20%, 10 mL/kg) 30 minutes after compound, plasma TG 2 hours after lipid, relative to solvent control
Description: Male ICR mice, 6 to 9 weeks old, were fasted overnight, and a test compound was suspended in 0.2% carboxymethylcellulose solution and the suspension was orally administered. After 30 minutes, lipid (Intralipos, 20%, Otsuka Pharmaceutical, 10 mL/kg) was orally administered. Blood was sampled through the caudal vein immediately before and 2 hours after the administration of the lipid to obtain plasma. TG in the plasma was determined by using Triglyceride E-Test Wako (Wako Pure Chemical), and the elevation value of TG in the plasma by the lipid administration was calculated. By using the plasma TG elevation value in the solvent control group as the control, the plasma TG elevation-suppressing ratio was calculated in the test compound administrating group.

[2] = system: Male C57BL/6J mice; assay: Food intake-suppressing action (high fat diet); type: in vivo, mouse; details: 5 mg/kg oral, fasted C57BL/6J mice, food intake for 4 hours, relative to solvent control
Description: Male C57BL/6J mice, 7 to 10 weeks old, were fasted overnight, and a test compound was suspended in 0.2% carboxymethylcellulose solution and the suspension was orally administered. Immediately, the animals were given high fat diet (Oriental Yeast, 60 cal % fat) and allowed to take freely. The food intake for 4 hours was determined, and the decrease ratio of the food intake (food intake-suppressing ratio) was calculated in the test compound administrating group, relative to the food intake in the solvent control group as a control.

[3] = system: Male KK-Ay mice; assay: Body weight gain-suppressing, hypoglycemic and plasma insulin-decreasing action in KK-Ay mouse; type: in vivo; details: 30 mg/kg/day oral once a day for 2 weeks, KK-Ay mice on high fat diet; for Hypoglycemic action (30 mg/kg/day): blood sugar after overnight fast; for Hypoglycemic action (30 mg/kg/day) / Plasma insulin-decreasing action (30 mg/kg/day): relative to solvent control; for Plasma insulin-decreasing action (30 mg/kg/day): plasma insulin after overnight fast; for Body weight gain-suppressing action (30 mg/kg/day): relative to body weight gain of solvent control as 100%
Description: Male KK-Ay mice, 8 weeks old, were given high fat diet (Oriental Yeast, 60 cal % fat), the test compound was suspended in 0.2% carboxymethylcellulose solution and the suspension was orally administered once a day. After the oral administration was repeated for 2 weeks, the body weight gain-suppressing ratio of the test compound was calculated, relative to the body weight gain of the solvent control group during the test period as 100%. After the final administration, the animals were fasted overnight, and blood was sampled through the caudal vein. The blood sugar and the insulin in the plasma were determined by using Glucose C II-Test Wako (Wako Pure Chemical) and Mouse Insulin Measurement Kit (Morinaga Institute of Biological Science), respectively.

| SMILES | Plasma TG elevation suppressing ratio (5 mg/kg) [1] [%] | Food intake-suppressing ratio (5 mg/kg) [2] [%] | Hypoglycemic action (30 mg/kg/day) [3] [%] | Plasma insulin-decreasing action (30 mg/kg/day) [3] [%] | Body weight gain-suppressing action (30 mg/kg/day) [3] [%] |
| --- | --- | --- | --- | --- | --- |
| CC(C)(COc1ccc(-c2ccc(-c3ncc(CCOc4ccccc4)[nH]3)cn2)cc1)C(=O)O [Example 1-58] | 66 | 68 | – | – | – |
| COC(=O)C(C)(C)COc1ccc(-c2ccc(-c3nc(-c4noc(C)n4)cn3COCC[Si](C)(C)C)cn2)cc1 [Example 7] | – | – | 42 | 34 | 34 |
| CC(C)(COc1ccc(-c2ccc(-c3nc(COCc4ccccc4)c[nH]3)cn2)cc1)C(=O)O [Example 10] | – | – | 37 | 40 | 32 |
| CCOCc1nc(-c2ccc(-c3ccc(OCC(C)(C)C(=O)O)cc3)nc2)[nH]c1Cl [Example 31-2] | 74 | 74 | 55 | 45 | 41 |
| Cc1cc(OCC(C)(C)C(=O)O)ncc1-c1ccc(-c2nc(C#N)c[nH]2)cc1 [Example 32-2] | 63 | 65 | – | – | – |
| O=C(O)Cc1ccc(C2CCN(c3ccc(-c4nc(C(F)(F)F)c[nH]4)cn3)CC2)cc1 [Example 43-2] | 66 | 82 | – | – | – |
| Nc1nnc(-c2ccc(Br)cc2)o1 [Example 61] | – | – | 44 | 50 | 36 |
| CCOc1nc(-c2ccc(-c3ccc(O[C@H]4CC[C@@H](C(=O)OCC)CC4)nc3)cc2)nn1COCC[Si](C)(C)C [Example 67] | – | – | 47 | 14 | 43 |
| COC(=O)C(C)(C)COc1ccc(-c2ccc(-c3nc(OCC(F)(F)C(F)(F)F)n(COCC[Si](C)(C)C)n3)cc2)cn1 [Example 74] | – | – | 32 | 29 | 41 |
| NC(=O)c1ccc(Br)cc1F [Example 78] | – | – | 57 | 69 | 56 |
| COc1ccc(-c2n[nH]c(-c3ccc(-c4ccc(OCC(C)(C)C(=O)O)nc4)cc3)n2)cc1 [Example 110] | 73.0 | 68 | – | – | – |

From patent publication US10308636B2, “Aromatic heterocyclic compound” (MITSUBISHI TANABE PHARMA CORPORATION, priority 2012, dated 2019)
